{"source": "patent US20250205268A1", "about": "“TREATMENT OF VIRUSES WITH ANTIVIRAL NUCLEOSIDES” (priority 2021, published 2025)", "key": {"[1]": {"tested_on": "SARS-CoV-2", "type": "in vivo", "details": "final"}, "[2]": {"tested_on": "SARS-CoV-2", "type": "in vivo"}, "[3]": {"tested_on": "SARS-CoV-2"}, "[4]": {"details": "MITT population, through day 29"}, "[5]": {"details": "safety population, all postbaseline visits through day 29"}, "[6]": {"details": "subgroup hospitalized after randomization, vs placebo"}, "[7]": {"details": "Part 2 interim, safety population"}}, "note": "Like-named read-outs stand apart in the source and are kept apart here.", "data": [{"compound": "CC(C)C(=O)OC[C@H]1O[C@@H](n2ccc(NO)nc2=O)[C@H](O)[C@@H]1O", "note": "[Compound A, {(2R,3S,4R,5R)-3,4-dihydroxy-5-[4-(hydroxyimino)-2-oxo-3,4-dihydropyrimidin-1 (2H)-yl]oxolan-2-yl}methyl 2-methylpropanoate]", "values": [{"measurement": "risk of hospitalization or death through day 29 lower than placebo, adjusted for participant sex", "setting": "[1]; post hoc analysis", "value": 2.8, "unit": "percentage points"}, {"measurement": "difference vs placebo in Covid-19-related hospitalizations or deaths", "setting": "[1]; prespecified supporting analysis", "value": "−2.8", "unit": "percentage points"}, {"measurement": "participants with Covid-19-related hospitalizations or deaths", "setting": "[1]; prespecified supporting analysis (45 of 709)", "value": 6.3, "unit": "%"}, {"measurement": "risk of death lower than with placebo", "setting": "[1]; through day 29", "value": 89, "unit": "%"}, {"measurement": "proportion of participants who had a COVID-19-related acute care visit", "setting": "[2]; [4]", "value": 6.6, "unit": "%"}, {"measurement": "proportion of participants who had an acute care visit", "setting": "[2]; [4]", "value": 7.2, "unit": "%"}, {"measurement": "RRR, COVID-19-related acute care visit", "setting": "[2]; MITT population, vs placebo", "value": 33.8, "unit": "%"}, {"measurement": "RRR, acute care visit", "setting": "[2]; MITT population, vs placebo", "value": 32.1, "unit": "%"}, {"measurement": "RRR, all respiratory interventions", "setting": "[2]; MITT population, vs placebo", "value": 34.3, "unit": "%"}, {"measurement": "RRR, high-flow heated and humidified device", "setting": "[2]; MITT population, vs placebo", "value": 26.1, "unit": "%"}, {"measurement": "RRR, invasive mechanical ventilation", "setting": "[2]; MITT population, vs placebo", "value": 64.1, "unit": "%"}, {"measurement": "RRR, noninvasive mechanical ventilation", "setting": "[2]; MITT population, vs placebo", "value": 75.4, "unit": "%"}, {"measurement": "RRR, oxygen therapy with conventional oxygen", "setting": "[2]; MITT population, vs placebo", "value": 23.6, "unit": "%"}, {"measurement": "mean change from baseline in CRP values versus placebo", "setting": "[2]; [5]", "value": "earlier and larger reductions"}, {"measurement": "mean change from baseline in SpO2 values versus placebo", "setting": "[2]; [5]", "value": "earlier and larger improvements"}, {"measurement": "median time to hospital discharge", "setting": "[2]; subgroup hospitalized after randomization", "value": 9, "unit": "days"}, {"measurement": "RRR, all respiratory interventions", "setting": "[2]; [6]", "value": 21.3, "unit": "%"}, {"measurement": "RRR, conventional oxygen", "setting": "[2]; [6]", "value": 12.8, "unit": "%"}, {"measurement": "RRR, high-flow heated and humidified device", "setting": "[2]; [6]", "value": "−4.7", "unit": "%"}, {"measurement": "RRR, invasive mechanical ventilation", "setting": "[2]; [6]", "value": 49.2, "unit": "%"}, {"measurement": "RRR, noninvasive mechanical ventilation", "setting": "[2]; [6]", "value": 65.1, "unit": "%"}, {"measurement": "hematological, pancreatic, or hepatic parameters", "setting": "[3]; Part 1, as a function of dose or treatment", "value": "no clinically meaningful abnormalities"}, {"measurement": "dose-limiting toxicity", "setting": "[3]; highest dose (800 mg), eDMC review of IA2 data", "value": "no dose-limiting toxicity was observed"}, {"measurement": "SARS-CoV-2 VL compared with placebo", "setting": "[3]; in vivo", "value": "reduces the SARS-CoV-2 VL compared with placebo"}, {"measurement": "tolerability", "setting": "[3]; non-hospitalized participants in Part 1", "value": "well-tolerated"}, {"measurement": "AE: COVID-19 pneumonia", "setting": "Part 2 interim", "value": 4.9, "unit": "%"}, {"measurement": "AE: bacterial pneumonia", "setting": "Part 2 interim", "value": 2.1, "unit": "%"}, {"measurement": "AE: worsening COVID-19", "setting": "Part 2 interim", "value": 8.0, "unit": "%"}, {"measurement": "tolerability", "setting": "Part 2 interim analysis", "value": "well-tolerated"}, {"measurement": "Died", "setting": "[7]", "value": "(0.0) %"}, {"measurement": "Estimated difference vs placebo: Died", "setting": "[7]", "value": "−2.6", "unit": "%"}, {"measurement": "adverse event: Covid-19 pneumonia", "setting": "final", "value": 6.3, "unit": "%"}, {"measurement": "adverse event: bacterial pneumonia", "setting": "final", "value": 2.0, "unit": "%"}, {"measurement": "adverse event: worsening of Covid-19", "setting": "final", "value": 7.9, "unit": "%"}, {"measurement": "Death", "setting": "final, safety population", "value": "2 (0.3) number (percent)"}, {"measurement": "Estimated Difference (95% CI) vs placebo: Death", "setting": "final, safety population", "value": "−1.4 (−2.7 to −0.5) percentage points"}, {"measurement": "AE: diarrhea", "setting": "human, in vivo", "value": 3.9, "unit": "%"}, {"measurement": "AE: nausea", "setting": "human, in vivo", "value": 2.8, "unit": "%"}, {"measurement": "AE: respiratory failure", "setting": "human, in vivo", "value": 1.0, "unit": "%"}, {"measurement": "At least 1 serious AE", "setting": "human, in vivo", "value": "(7.3) %"}, {"measurement": "At least 1 serious drug-related AE", "setting": "human, in vivo", "value": "(0.0) %"}, {"measurement": "Discontinued the assigned regimen because of a serious adverse event", "setting": "human, in vivo", "value": "5 (0.7) number (percent)"}, {"measurement": "Discontinued the assigned regimen because of a serious adverse event related to the assigned regimen", "setting": "human, in vivo", "value": "0 number (percent)"}, {"measurement": "Discontinued the assigned regimen because of an adverse event", "setting": "human, in vivo", "value": "10 (1.4) number (percent)"}, {"measurement": "Discontinued the assigned regimen because of an adverse event related to the assigned regimen", "setting": "human, in vivo", "value": "4 (0.6) number (percent)"}, {"measurement": "Discontinued treatment due to a drug-related AE", "setting": "human, in vivo", "value": "(0.8) %"}, {"measurement": "Discontinued treatment due to a serious AE", "setting": "human, in vivo", "value": "(0.3) %"}, {"measurement": "Discontinued treatment due to a serious drug-related AE", "setting": "human, in vivo", "value": "(0.0) %"}, {"measurement": "Discontinued treatment due to an AE", "setting": "human, in vivo", "value": "(1.3) %"}, {"measurement": "Estimated Difference (95% CI) vs placebo: discontinued because of a serious adverse event", "setting": "human, in vivo", "value": "−1.2 (−2.5 to 0.0) percentage points"}, {"measurement": "Estimated Difference (95% CI) vs placebo: discontinued because of a serious adverse event related to the assigned regimen", "setting": "human, in vivo", "value": "0.0 (−0.5 to 0.5) percentage points"}, {"measurement": "Estimated Difference (95% CI) vs placebo: discontinued because of an adverse event", "setting": "human, in vivo", "value": "−1.4 (−3.1 to 0.1) percentage points"}, {"measurement": "Estimated Difference (95% CI) vs placebo: discontinued because of an adverse event related to the assigned regimen", "setting": "human, in vivo", "value": "0.1 (−0.8 to 1.1) percentage points"}, {"measurement": "Estimated Difference (95% CI) vs placebo: ≥1 Adverse event", "setting": "human, in vivo", "value": "−2.5 (−7.4 to 2.3) percentage points"}, {"measurement": "Estimated Difference (95% CI) vs placebo: ≥1 Adverse event related to the assigned regimen", "setting": "human, in vivo", "value": "−0.4 (−3.3 to 2.5) percentage points"}, {"measurement": "Estimated Difference (95% CI) vs placebo: ≥1 Serious adverse event", "setting": "human, in vivo", "value": "−2.7 (−5.6 to 0.2) percentage points"}, {"measurement": "Estimated Difference (95% CI) vs placebo: ≥1 Serious adverse event related to the assigned regimen", "setting": "human, in vivo", "value": "−0.1 (−0.8 to 0.4) percentage points"}, {"measurement": "Estimated difference vs placebo: At least 1 AE", "setting": "human, in vivo", "value": "−4.6", "unit": "%"}, {"measurement": "Estimated difference vs placebo: At least 1 drug-related AE", "setting": "human, in vivo", "value": 1.4, "unit": "%"}, {"measurement": "Estimated difference vs placebo: At least 1 serious AE", "setting": "human, in vivo", "value": "−6.7", "unit": "%"}, {"measurement": "Estimated difference vs placebo: At least 1 serious drug-related AE", "setting": "human, in vivo", "value": 0.0, "unit": "%"}, {"measurement": "Estimated difference vs placebo: Discontinued treatment due to a drug-related AE", "setting": "human, in vivo", "value": "−0.0", "unit": "%"}, {"measurement": "Estimated difference vs placebo: Discontinued treatment due to a serious AE", "setting": "human, in vivo", "value": "−2.1", "unit": "%"}, {"measurement": "Estimated difference vs placebo: Discontinued treatment due to a serious drug-related AE", "setting": "human, in vivo", "value": 0.0, "unit": "%"}, {"measurement": "Estimated difference vs placebo: Discontinued treatment due to an AE", "setting": "human, in vivo", "value": "−2.1", "unit": "%"}, {"measurement": "adverse event related to the trial regimen: diarrhea", "setting": "human, in vivo", "value": 1.7, "unit": "%"}, {"measurement": "adverse event related to the trial regimen: dizziness", "setting": "human, in vivo", "value": 1.0, "unit": "%"}, {"measurement": "adverse event related to the trial regimen: nausea", "setting": "human, in vivo", "value": 1.4, "unit": "%"}, {"measurement": "adverse event: diarrhea", "setting": "human, in vivo", "value": 2.3, "unit": "%"}, {"measurement": "drug-related AE: diarrhea", "setting": "human, in vivo", "value": 3.1, "unit": "%"}, {"measurement": "drug-related AE: nausea", "setting": "human, in vivo", "value": 2.3, "unit": "%"}, {"measurement": "participants with adverse events considered related to the trial regimen", "setting": "human, in vivo", "value": 8.0, "unit": "%"}, {"measurement": "≥1 Adverse event", "setting": "human, in vivo", "value": "216 (30.4) number (percent)"}, {"measurement": "≥1 Adverse event related to the assigned regimen", "setting": "human, in vivo", "value": "57 (8.0) number (percent)"}, {"measurement": "≥1 Serious adverse event", "setting": "human, in vivo", "value": "49 (6.9) number (percent)"}, {"measurement": "≥1 Serious adverse event related to the assigned regimen", "setting": "human, in vivo", "value": "0 number (percent)"}, {"measurement": "hematological laboratory tests", "setting": "in vivo", "value": "no clinically significant abnormalities"}, {"measurement": "liver parameters", "setting": "in vivo", "value": "No clinically significant abnormalities in liver parameters"}, {"measurement": "participants meeting prespecified criteria for platelets <50,000/μL or potential drug-induced liver injury", "setting": "in vivo", "value": "No participants in the Compound A group met prespecified criteria"}, {"measurement": "participants meeting prespecified criteria for postbaseline platelet count below 50,000 per microliter", "setting": "in vivo", "value": "One participant"}]}]}
